Like-named read-outs stand apart in the source and are kept apart here.
Legend:
RMUG-S cells = assay: MMS-induced nuclear PAR accumulation, immunofluorescence imaging; assay type: cell-based; settings: Homo sapiens, 50 μg/mL MMS, n=3, read-out: Geometric Mean EC50, PAR accumulation
Protocol: (§1) The HeLa (Cat #CCL-2) and OVCAR-3 (Cat #HTB-161) human cancer cell lines were obtained from ATCC (Manassas, Virginia, USA) and the RMUG-S(Cat #IFO50320) and Kuramochi (Cat #JCRB0098) cell lines were obtained from the National Institutes of Biomedical Innovation, Health and Nutrition's Japanese Collection of Research Bioresources (Ibaraki City, Osaka, Japan).
(§2) All cell lines were grown in an incubator at 37° C. in 5% CO2. HeLa cells were cultured in Dulbecco's Modified Medium (DMEM)+glutaMAX™ (Thermo Fisher Scientific, Waltham, MA, USA Cat #10566-016) containing 1% penicillin/streptomycin (pen/strep) (Thermo Fisher Scientific Cat #15070-063), and 10% fetal bovine serum (FBS) (Thermo Fisher Scientific Cat #A31605-02). Kuramochi cells were cultured in RPMI medium+glutaMAX™ (Thermo Fisher Scientific Cat #72400-047), 10% FBS, and 1% pen/strep. RMUG-S cells were cultured in Ham's F12 medium+glutaMAX™ (Thermo Fisher Scientific Cat #31765-035) containing 10% FBS, and 1% pen/strep. OVCAR-3 cells were cultured in RPMI medium+glutaMAX™ containing 20% FBS, 1% pen/strep, and 0.01 mg/mL bovine insulin (MilliporeSigma, Burlington, MA, USA Cat #10516-5ML).
(§3) Compound 1 EC50 values for accumulation of PAR chains were determined using an immunofluorescence high-content imaging assay of PAR staining. Cells were harvested with trypsin (Thermo Fisher Scientific, Cat #25200-056) and plated in black-walled, clear bottom 96-well Corning Costar 3603 plates (VWR, Radnor, PA, USA Cat #29444-008) at 15,000 cells/well in 100 μL normal growth media. The cells were incubated overnight at 37° C., 5% CO2. The following day, a 1000× Compound 1 concentration curve was prepared by serial dilution of Compound 1 in 100% DMSO for twelve concentrations with the highest starting final concentration of 10 μM. The 1000× test compound curve was diluted 1:200 into growth media to prepare a 5× concentration curve in 0.5% DMSO/media before addition of 25 μL of compound or 0.5% DMSO/media alone to each well of the plate. The plate was mixed gently on a plate shaker and then preincubated at 37° C., 5% CO2 for 1 hour. A 2.25× stock of MMS (Sigma Cat #129925-5G) plus Compound 1 in media was prepared by diluting a 100 mg/mL stock of MMS prepared in 100% DMSO into growth media containing 1× Compound 1 compound. […] Nuclear PAR accumulation was evaluated by imaging the plates on an ImageXpress Pico automated cell imaging system (Molecular Devices, San Jose, CA, USA).
(§4) Four fields for each well were acquired at 20× magnification resulting in at least 1,000 cells analyzed per well. Percent PAR positive cells were calculated using CellReporterXpress software (Molecular Devices, San Jose, CA, USA) using nuclei detection by DAPI image segmentation then setting a fluorescence intensity threshold for PAR. […]

HeLa cells = assay: as above; assay type: cell-based; settings: Homo sapiens, 50 μg/mL MMS, n=26, read-out: Geometric Mean EC50, PAR accumulation
Protocol: as §1, §2, §3, §4

OVCAR3 cells = assay: 6-day growth assay, Compound 1 in combination with camonsertib; assay type: cell-based; settings: Homo sapiens, OVCAR-3, 144 h, read-out: Compound 1 IC50, 6-Day Nuclei Count
[1] = system: HBCx-22 breast cancer patient-derived xenograft; assay: HBCx-22 breast cancer PDX model; assay type: in vivo, Hsd: Athymic Nude-Foxn1nu mice; settings: 75 or 100 mg/kg BID, 42 days
Protocol: The PDX models were established by subcutaneous inoculation of HBCx-22 or HBCx-34 cells into Hsd: Athymic Nude-Foxn1nu mice. Breast tumor-bearing mice received estrogen diluted in drinking water (β-oestradiol, 8.5 mg/L) from the date of tumor inoculation until the end of the study to promote optimal growth of the ER^+ cell line. Groups of 10 animals each were established by random assignment. Tumor volumes and body weights were measured twice weekly. […] Statistical analysis of end-of-study tumor volumes was performed using the Kruskal-Wallis test with Dunn's multiple comparisons test (HBCx-34) or Brown-Forsythe test with Dunnett's T3 multiple comparisons test (HBCx-22).
Compound 1 was administered to mice orally twice daily (BID) for 42 days at a dose of 75 or 100 mg/kg based on body weight. […] Compound 1 was administered to mice orally BID for 35 days at doses of 75 or 100 mg/kg based on body weight.

In the case of [2H]C([2H])(c1cnn(C)c1)N1C(=O)c2cc(S(=O)(=O)NC3(C)CC3)ccc2N2C1=NC[C@H]2C [Compound 1, (R)-1-methyl-4-((1-methyl-1H-pyrazol-4-yl)methyl-d2)-N-(1-methylcyclopropyl)-5-oxo-1,2,4,5-tetrahydroimidazo[1,2-a]quinazoline-7-sulfonamide], the EC50 (RMUG-S cells) is reported as 0.038 µM, the EC50 (HeLa cells) is reported as 0.014 µM and the IC50 (OVCAR3 cells; camonsertib 0.032 nM) is reported as 39 µM. For the same molecule, the IC50 (OVCAR3 cells; camonsertib 0.32 nM) was 44 µM, the IC50 (OVCAR3 cells; camonsertib 3.2 nM) was 29 µM and the IC50 (OVCAR3 cells; camonsertib 10 nM) was 12 µM. The IC50 (OVCAR3 cells; camonsertib 32 nM) was 2 µM, the IC50 (OVCAR3 cells; camonsertib 100 nM) was 0.27 µM and the “tolerability (body weight)” value [1] was “generally well tolerated”.

— patent US20260272936A1, “TREATMENT OF CANCER WITH A PARG INHIBITOR” (858 Therapeutics, Inc., priority 2023, published 2026)
